This assay concerns the target BTK (Homo sapiens (Human), UniProt Q06187). Description: Btk in vitro inhibitory activity (one of Method A TR-FRET, Method B electrophoretic mobility shift, Method C radiometric filter binding). The format is biochemical.
Setting [1] is: determined using one of the methods of Example 355a, 355b and 355c, read-out: BTK IC50.

The values that follow come from patent US9656988B2 (Pharmacyclics LLC, priority 2013, dated 2017).

Read-outs that look alike come from different tables or passages of the source.

BTK, sequence (Q06187 whole entry): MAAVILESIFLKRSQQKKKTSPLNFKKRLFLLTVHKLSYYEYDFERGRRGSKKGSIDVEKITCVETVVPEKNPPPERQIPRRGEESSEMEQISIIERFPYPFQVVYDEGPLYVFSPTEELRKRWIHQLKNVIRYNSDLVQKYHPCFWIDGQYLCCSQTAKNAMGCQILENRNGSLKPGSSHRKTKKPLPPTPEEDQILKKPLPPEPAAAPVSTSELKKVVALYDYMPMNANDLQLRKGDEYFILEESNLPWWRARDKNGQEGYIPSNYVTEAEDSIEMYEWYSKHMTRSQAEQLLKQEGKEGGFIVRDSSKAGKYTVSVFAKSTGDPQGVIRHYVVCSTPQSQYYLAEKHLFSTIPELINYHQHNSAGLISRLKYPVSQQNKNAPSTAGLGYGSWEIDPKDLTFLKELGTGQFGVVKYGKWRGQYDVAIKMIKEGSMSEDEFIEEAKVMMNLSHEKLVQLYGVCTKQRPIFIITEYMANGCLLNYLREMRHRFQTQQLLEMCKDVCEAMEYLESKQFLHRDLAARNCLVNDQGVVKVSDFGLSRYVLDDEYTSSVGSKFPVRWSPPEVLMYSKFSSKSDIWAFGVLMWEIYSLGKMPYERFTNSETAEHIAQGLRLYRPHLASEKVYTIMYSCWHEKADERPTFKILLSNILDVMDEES

As to `CN(C)C(=O)N1CCC(c2ccc(Nc3nc(N4CCC[C@@H](N(C)C(=O)N(C)C)C4)cnc3C(N)=O)cc2)CC1` [Example 226, (R)-3-(4-(1-(dimethylcarbamoyl)piperidin-4-yl)phenylamino)-5-(3-(1,3,3-trimethylureido)piperidin-1-yl)pyrazine-2-carboxamide], the half-maximal inhibitory concentration (IC50) by setting is: (Btk (IC50)) 10 to 100 nM; under setting [1], 10 to 100 nM. As to `CC(C)(C)c1ccc(C(=O)N[C@@H]2CCCN(c3nnc(C(N)=O)c(Nc4cncc(F)c4)n3)C2)cc1` [Example 52, (R)-3-(3-(4-tert-butylbenzamido)piperidin-1-yl)-5-(5-fluoropyridin-3-ylamino)-1,2,4-triazine-6-carboxamide], the IC50 under setting [1] was 100 to 1000 nM. `COc1ccc(C(=O)N[C@@H]2CCCN(c3cnc(C(N)=O)c(Nc4ccc(C5CCN(C6CC6)CC5)cc4)n3)C2)cc1` [Example 133, (R)-3-(4-(1-cyclopropylpiperidin-4-yl)phenylamino)-5-(3-(4-methoxybenzamido)piperidin-1-yl)pyrazine-2-carboxamide]: the IC50 runs as follows: under setting [1], under 10 nM; (read-out: Btk (IC50)) under 10 nM.

With `CN1CCC(c2ccc(Nc3nc(N4CCC[C@@H](NC(=O)c5ccc(F)cc5)C4)cnc3C(N)=O)cc2)CC1` [Example 168, (R)-5-(3-(4-fluorobenzamido)piperidin-1-yl)-3-(4-(1-methylpiperidin-4-yl)phenylamino)pyrazine-2-carboxamide], the concentration for half-maximal inhibition (IC50) reads like this: under setting [1], under 10 nM; (read-out: Btk (IC50)) under 10 nM. With `NC(=O)c1nnc(N2CCC[C@@H](NC(=O)N3CCCCC3)C2)nc1Nc1ccc(C2CCN(C3CCCC3)CC2)cc1` [Example 336, (R)-5-(4-(1-cyclopentylpiperidin-4-yl)phenylamino)-3-(3-(piperidine-1-carboxamido)piperidin-1-yl)-1,2,4-triazine-6-carboxamide], the half-inhibitory concentration (IC50) is under 10 nM under setting [1] and under 10 nM (read-out: Btk (IC50)).

On to `NC(=O)c1ncc(N2CCC[C@@H](NC(=O)c3ccc(Cl)s3)C2)nc1Nc1ccc(C2CCN(C3CC3)CC2)cc1` [Example 314, (R)-5-(3-(5-chlorothiophene-2-carboxamido)piperidin-1-yl)-3-(4-(1-cyclopropylpiperidin-4-yl)phenylamino)pyrazine-2-carboxamide], for which the IC50 under setting [1] was in the range of 10 to 100 nM. `C[C@@H]1[C@H](NC(=O)N(C)C)CCCN1c1cnc(C(N)=O)c(Nc2ccc(C3(C#N)CCN(C4CCCC4)CC3)cc2)n1` [Example 250, 3-(4-(4-cyano-1-cyclopentylpiperidin-4-yl)phenylamino)-5-((2R,3R)-3-(3,3-dimethylureido)-2-methylpiperidin-1-yl)pyrazine-2-carboxamide]: the IC50 is, setting by setting: under setting [1], under 10 nM; (read-out: Btk (IC50)) under 10 nM. As to `C[C@@H]1[C@H](NC(=O)N(C)C)CCCN1c1cnc(C(N)=O)c(Nc2ccc(C3(C(N)=O)CC3)cc2)n1` [Example 241, 3-(4-(1-carbamoylcyclopropyl)phenylamino)-5-((2R,3R)-3-(3,3-dimethylureido)-2-methylpiperidin-1-yl)pyrazine-2-carboxamide], the IC50 under setting [1] was under 10 nM. For the compound `C[C@H]1[C@H](NC(=O)N(C)C)CCCN1c1cnc(C(N)=O)c(Nc2ccc(C3CCN(C4CCCC4)CC3)cc2)n1` [Example 233, 3-(4-(1-cyclopentylpiperidin-4-yl)phenylamino)-5-((2S,3R)-3-(3,3-dimethylureido)-2-methylpiperidin-1-yl)pyrazine-2-carboxamide], the 50% inhibitory concentration (IC50) runs as follows: (Btk (IC50)) 100 to 1000 nM; under setting [1], 100 to 1000 nM. For `CCC(=O)N1CCC(c2ccc(Nc3nc(N4CCC[C@@H](N(C)C(=O)N(C)C)C4)cnc3C(N)=O)cc2)CC1` [Example 227, (R)-3-(4-(1-propionylpiperidin-4-yl)phenylamino)-5-(3-(1,3,3-trimethylureido)piperidin-1-yl)pyrazine-2-carboxamide], the half-maximal inhibitory concentration (IC50) lay in the range of 10 to 100 nM (Btk (IC50)) and 10 to 100 nM under setting [1].

With `NC(=O)c1nnc(N2CC[C@@H](NC(=O)c3ccccc3)C2)nc1Nc1ccc(C(=O)N2CCOCC2)cc1` [Example 50, (R)-3-(3-benzamidopyrrolidin-1-yl)-5-(4-(morpholine-4-carbonyl)phenylamino)-1,2,4-triazine-6-carboxamide], the IC50 under setting [1] is 100 to 1000 nM.

`CN(C)C(=O)N[C@@H]1CCCN(c2cnc(C(N)=O)c(Nc3ccc(C4(CN)CC4)cc3)n2)C1` [Example 201, (R)-3-(4-(1-(aminomethyl)cyclopropyl)phenylamino)-5-(3-(3,3-dimethylureido)piperidin-1-yl)pyrazine-2-carboxamide]: the IC50 under setting [1] lay within 10 to 100 nM. On the same count and under the same terms, in the case of `CN(C)C(=O)N[C@@H]1CCCN(c2cnc(C(N)=O)c(Nc3cnn(C4CC4)c3)n2)C1` [Example 216, (R)-3-(1-cyclopropyl-1H-pyrazol-4-ylamino)-5-(3-(3,3-dimethylureido)piperidin-1-yl)pyrazine-2-carboxamide] it was 10 to 100 nM. On to `NC(=O)c1ncc(N2CCC[C@@H](NC(=O)c3ccccc3)C2)nc1Nc1ccc(C2CCN(C3CCCC3)CC2)cc1` [Example 303, (R)-5-(3-benzamidopiperidin-1-yl)-3-(4-(1-cyclopentylpiperidin-4-yl)phenylamino)pyrazine-2-carboxamide], for which the half-inhibitory concentration (IC50) was under 10 nM under setting [1] and under 10 nM (read-out: Btk (IC50)).

In the case of `CN(C)C(=O)N[C@@H]1CCCN(c2cnc(C(N)=O)c(Nc3cnn(C4CCCC4)c3)n2)C1` [Example 217, (R)-3-(1-cyclopentyl-1H-pyrazol-4-ylamino)-5-(3-(3,3-dimethylureido)piperidin-1-yl)pyrazine-2-carboxamide], the IC50 under setting [1] fell in the range of 10 to 100 nM. On to `Cc1cc(C(=O)N[C@@H]2CCCN(c3nnc(C(N)=O)c(Nc4ccc(C(=O)N5CCOCC5)cc4)n3)C2)no1` [Example 91, (R)—N-(1-(6-carbamoyl-5-(4-(morpholine-4-carbonyl)phenylamino)-1,2,4-triazin-3-yl)piperidin-3-yl)-5-methylisoxazole-3-carboxamide], for which the IC50 lay in the range of 10 to 100 nM (Btk (IC50)) and 10 to 100 nM under setting [1].

Regarding `NC(=O)c1nnc(N2CCC[C@@H](NC(=O)N3CCCC3)C2)nc1Nc1ccc(C(=O)N2CCOCC2)cc1` [Example 35, (R)-5-(4-(morpholine-4-carbonyl)phenylamino)-3-(3-(pyrrolidine-1-carboxamido)piperidin-1-yl)-1,2,4-triazine-6-carboxamide], the 50% inhibitory concentration (IC50) under setting [1] lay in the range of 10 to 100 nM. `CN(C)C(=O)N[C@@H]1CCCN(c2cnc(C(N)=O)c(Nc3ccc(C4(C#N)CC4)cc3)n2)C1` [Example 199, (R)-3-(4-(1-cyanocyclopropyl)phenylamino)-5-(3-(3,3-dimethylureido)piperidin-1-yl)pyrazine-2-carboxamide]: the concentration for half-maximal inhibition (IC50) by setting is: under setting [1], under 10 nM; (read-out: Btk (IC50)) under 10 nM.

With `NC(=O)c1nnc(N2CCC[C@@H](NC(=O)N3CCCCC3)C2)nc1Nc1ccc(C2CCNCC2)cc1` [Example 335, (R)-5-(4-(piperidin-4-yl)phenylamino)-3-(3-(piperidine-1-carboxamido)piperidin-1-yl)-1,2,4-triazine-6-carboxamide], the IC50 under setting [1] is under 10 nM. As to `CC(C)C(=O)N[C@@H]1CCCN(c2nnc(C(N)=O)c(Nc3ccc(C(=O)N4CCOCC4)cc3)n2)C1` [Example 24, (R)-3-(3-isobutyramidopiperidin-1-yl)-5-(4-(morpholine-4-carbonyl)phenylamino)-1,2,4-triazine-6-carboxamide], under setting [1], the concentration for half-maximal inhibition (IC50) fell in the range of 10 to 100 nM. In the case of `NC(=O)c1nnc(N2CCC[C@@H](Oc3nccc4ccccc34)C2)nc1Nc1ccc(C(=O)N2CCOCC2)cc1` [Example 45, (R)-3-(3-(isoquinolin-1-yloxy)piperidin-1-yl)-5-(4-(morpholine-4-carbonyl)phenylamino)-1,2,4-triazine-6-carboxamide], the IC50 under setting [1] lay in the range of 100 to 1000 nM. `CN(C)C(=O)N[C@@H]1CCCN(c2cnc(C(N)=O)c(Nc3ccc(C4CCN(CCOCCO)CC4)cc3)n2)C1` [Example 177, (R)-5-(3-(3,3-dimethylureido)piperidin-1-yl)-3-(4-(1-(2-(2-hydroxyethoxy)ethyl)piperidin-4-yl)phenylamino)pyrazine-2-carboxamide]: the IC50 was under 10 nM under setting [1] and under 10 nM (read-out: Btk (IC50)).

For the compound `NC(=O)c1ncc(N2CCC[C@H]3NCC[C@H]32)nc1Nc1ccc(C2CCN(C3CCCC3)CC2)cc1` [Example 286, 3-(4-(1-cyclopentylpiperidin-4-yl)phenylamino)-5-((3aR,7aR)-dihydro-1H-pyrrolo[3,2-b]pyridin-4(2H,5H,6H,7H,7aH)-yl)pyrazine-2-carboxamide], the IC50 was 10 to 100 nM under setting [1] and 10 to 100 nM (read-out: Btk (IC50)). On to `COc1ccc(C(=O)N[C@@H]2CCCN(c3cnc(C(N)=O)c(Nc4ccc(-n5ccccc5=O)cc4)n3)C2)cc1` [Example 127, (R)-5-(3-(4-methoxybenzamido)piperidin-1-yl)-3-(4-(2-oxopyridin-1(2H)-yl)phenylamino)pyrazine-2-carboxamide], for which the IC50 is 10 to 100 nM under setting [1] and 10 to 100 nM (read-out: Btk (IC50)). For `NC(=O)c1ncc(N2CCC[C@@H](N3CCN(C4CC4)C3=O)C2)nc1Nc1ccc(C2CCN(C3CCC3)CC2)cc1` [Example 278, (R)-3-(4-(1-cyclobutylpiperidin-4-yl)phenylamino)-5-(3-(3-cyclopropyl-2-oxoimidazolidin-1-yl)piperidin-1-yl)pyrazine-2-carboxamide], the 50% inhibitory concentration (IC50) is, setting by setting: under setting [1], under 10 nM; (read-out: Btk (IC50)) under 10 nM. For the compound `COc1ccc(C(=O)N[C@@H]2CCCN(c3cnc(C(N)=O)c(Nc4ccc(C5CCN(C6CCCC6)CC5)cc4)n3)C2)cc1` [Example 135, (R)-3-(4-(1-cyclopentylpiperidin-4-yl)phenylamino)-5-(3-(4-methoxybenzamido)piperidin-1-yl)pyrazine-2-carboxamide], the IC50 runs as follows: under setting [1], under 10 nM; (read-out: Btk (IC50)) under 10 nM.

`COc1ccc(C(=O)N[C@@H]2CCCN(c3cnc(C(N)=O)c(Nc4ccc(N5CCS(=O)(=O)CC5)cc4)n3)C2)cc1` [Example 161, (R)-5-(3-(4-methoxybenzamido)piperidin-1-yl)-3-(4-(1,1-dioxothiomorpholino)phenylamino)pyrazine-2-carboxamide]: the IC50 under setting [1] was under 10 nM and the concentration for half-maximal inhibition (IC50) (read-out: Btk (IC50)) is under 10 nM.
